The target in data set [1] is T1, UGT2B4 (Homo sapiens, UniProt P06133).
T1 sequence (P06133 24-528): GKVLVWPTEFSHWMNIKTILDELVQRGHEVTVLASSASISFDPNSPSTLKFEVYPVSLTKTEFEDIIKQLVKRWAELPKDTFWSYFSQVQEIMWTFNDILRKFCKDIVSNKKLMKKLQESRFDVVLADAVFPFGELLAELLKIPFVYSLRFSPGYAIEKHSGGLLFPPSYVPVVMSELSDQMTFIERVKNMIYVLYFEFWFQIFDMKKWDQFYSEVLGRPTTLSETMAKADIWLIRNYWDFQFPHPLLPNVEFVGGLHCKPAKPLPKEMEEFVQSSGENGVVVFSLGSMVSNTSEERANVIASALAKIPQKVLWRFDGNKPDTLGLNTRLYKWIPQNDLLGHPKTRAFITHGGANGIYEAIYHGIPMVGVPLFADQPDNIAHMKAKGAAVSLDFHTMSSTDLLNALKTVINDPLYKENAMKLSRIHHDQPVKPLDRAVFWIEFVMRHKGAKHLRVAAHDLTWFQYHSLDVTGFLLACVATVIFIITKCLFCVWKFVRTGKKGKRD
Nature of the data set: Inhibition of recombinant UGT2B4 activity (4-MU glucuronidation). On the procedure:
A panel of recombinant human UGT supersomes (UGT1A1, UGT1A3, UGT1A4, UGT1A6, UGT1A7, UGT1A8, UGT1A9, UGT1A10, UGT2B4, UGT2B7, UGT2B15, and UGT2B17) expressed in baculovirus-infected insect cells were purchased from BD Gentest Corp. (Woburn, MA, USA).
4-MU, a nonselective substrate of UGTs, was used as probe substrate for all UGTs except UGT1A4. Incubations with each individual enzyme were conducted using conditions previously described. There was a 5 min preincubation step at 37°C before the reaction was started by addition of UDPGA. The incubation mixtures were then centrifuged at 20,500 ×g for 15 min to obtain the supernatant. Aliquots (20 μL) were then analyzed by HPLC. The HPLC system (SHIMADZU, Kyoto, Japan) consisted of an SCL-10A system controller, two LC-10AT pumps, a SIL-10A auto injector, and a SPD-10AVP UV detector. Chromatographic separation was achieved using a Kromasil ODS column (4.6 × 150 mm I.D., 5 μm particle size) at a flow rate of 1 mL/min and UV detection at 316 nm. The mobile phase consisted of 10 mM KH2PO4, pH 2.7 (A) and acetonitrile (B). The following gradient was applied at a flow rate of 1 mL/min: 0–4 min 80% A and 20% B, 4.1–8 min 50% A and 50% B, 8.1–12 min, 30% A and 70% B. All experiments were performed in two independent experiments in duplicate.
A typical incubation mixture contained recombinant human UGTs, 5 mM MgCl2, 5 mM UDPGA, 50 μg/mg protein alamethicin, 50 mM Tris-HCl buffer (pH 7.4), and various probe substrates of UGTs in the absence or presence of different concentrations of inhibitors. […] The final concentration of DMSO in the incubation system was 1% (v/v). […]
Inhibition data from experiments were graphically represented by Dixon plots. K i values were calculated by nonlinear regression using the equations for competitive inhibition (1), noncompetitive inhibition (2), or mixed inhibition (3), [22] […] The type of inhibition was determined from the enzyme inhibition models. Goodness of fit to kinetic and inhibition models was assessed from the F statistic, r ^2 values, parameter standard error estimates, and 95% confidence intervals. […]

The conditions of data set [2]: reported value, as fraction; cited from earlier work.
For data set [3] the following is noted: cited from earlier work.
Data set [4] relates to CYPs. More on the design: method as in PMID 16476124. The settings on record: previous studies; cited from earlier work.
Details of data set [5]: method as in PMID 17632044. The settings on record: after a single oral administration of Epimedium pubescens decoction; cited from earlier work.

SMILES strings stand for the structures.

Broadly, the IC50 is the concentration at which inhibition is half-maximal. Take `COc1ccc(-c2oc3c(CC=C(C)C)c(O[C@@H]4O[C@H](CO)[C@@H](O)[C@H](O)[C@H]4O)cc(O)c3c(=O)c2O[C@@H]2O[C@@H](C)[C@H](O)[C@@H](O)[C@H]2O)cc1` [Icariin]: the IC50 in data set [1] is over 100 µM. Further, the Oral bioavailability in data set [2] is 0.12. In addition, the “Fraction of icariin transformed into its intestinal metabolites in the intestinal lumen” value in data set [3] was “about 70%”. Further, the “Inhibitory effect on CYPs activities” value in data set [4] is “no inhibitory effects”.

On to `COc1ccc(-c2oc3c(CC=C(C)C)c(O[C@@H]4O[C@H](CO)[C@@H](O)[C@H](O)[C@H]4O)cc(O)c3c(=O)c2O)cc1` [Icariside I], for which, in data set [1], the IC50 was over 100 µM.

As for `COc1ccc(-c2oc3c(CC=C(C)C)c(O)cc(O)c3c(=O)c2O)cc1` [Icaritin], the half-maximal inhibitory concentration (IC50) in data set [1] is over 100 µM. In data set [5], the “Reported icaritin concentration in blood” value was 1.5 nM.
